Laboratory results reported in article PMC4491819, “Specificity and catalysis hardwired at the RNA–protein interface in a translational proofreading enzyme” (Nature Communications, 2015).

Legend:
PabNTD = biological target: T1, PabNTD (Pyrococcus abyssi, UniProt Q9UZ14, K121M); test: X-ray crystal structure; assay type: binding; settings: editing (amino-acid/adenosine) pocket
T1 construct: gene thrS; N-terminal editing domain, residues 1-143 of ThrRS, untagged, expressed in E. coli, homodimer; all rows are K121M

ApNTD [1] = biological target: T2, ApNTD (Aeropyrum pernix, UniProt Q9YFY3); test: ITC (also crystal structure); assay type: binding
T2 construct: gene thrS2; N-terminal editing domain, residues 1-136 of ThrRS-2, untagged, expressed in E. coli, homodimer
T2 sequence (Q9YFY3 1-136): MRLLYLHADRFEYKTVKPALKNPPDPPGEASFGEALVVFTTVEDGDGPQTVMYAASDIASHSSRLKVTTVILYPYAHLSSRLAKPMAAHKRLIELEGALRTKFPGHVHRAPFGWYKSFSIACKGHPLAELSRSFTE

[2] = biological target: N-terminal editing domain (NTD) of threonyl-tRNA synthetase from Aeropyrum pernix (Aeropyrum pernix); test: crystal structure; co-crystals with the substrate analogues L-Ser3AA or L-Thr3AA, grown at 4 °C; ApNTD in P4(1)2(1)2 with one monomer in the asymmetric unit (dimer by the crystallographic twofold); MjNTD in C2 and P2(1) with six and four monomers in the asymmetric unit
ApNTD [3] = biological target: T3, ApNTD (Aeropyrum pernix, UniProt Q9YFY3, E129A); test: X-ray crystal structure; assay type: binding; settings: editing (amino-acid/adenosine) pocket
T3 construct: gene thrS2; N-terminal editing domain, residues 1-136 of ThrRS-2, untagged, expressed in E. coli, homodimer

ApNTD [4] = biological target: T4, ApNTD (Aeropyrum pernix, UniProt Q9YFY3, Y115A); test: X-ray crystal structure; assay type: binding; settings: editing (amino-acid/adenosine) pocket
T4 construct: gene thrS2; N-terminal editing domain, residues 1-136 of ThrRS-2, untagged, expressed in E. coli, homodimer

ApNTD [5] = biological target: T5, ApNTD (Aeropyrum pernix, UniProt Q9YFY3, K116M); test: X-ray crystal structure; assay type: binding; settings: editing (amino-acid/adenosine) pocket
T5 construct: gene thrS2; N-terminal editing domain, residues 1-136 of ThrRS-2, untagged, expressed in E. coli, homodimer

[6] = biological target: the molecule itself; test: crystal structure; co-crystals with the substrate analogues L-Ser3AA or L-Thr3AA, grown at 4 °C; ApNTD in P4(1)2(1)2 with one monomer in the asymmetric unit (dimer by the crystallographic twofold); MjNTD in C2 and P2(1) with six and four monomers in the asymmetric unit

T1 sequence (Q9UZ14 1-143 K121M): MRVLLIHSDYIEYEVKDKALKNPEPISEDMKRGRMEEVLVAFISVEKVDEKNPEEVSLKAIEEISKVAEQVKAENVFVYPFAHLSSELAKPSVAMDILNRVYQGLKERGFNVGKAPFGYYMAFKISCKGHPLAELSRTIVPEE
T5 sequence (Q9YFY3 1-136 K116M): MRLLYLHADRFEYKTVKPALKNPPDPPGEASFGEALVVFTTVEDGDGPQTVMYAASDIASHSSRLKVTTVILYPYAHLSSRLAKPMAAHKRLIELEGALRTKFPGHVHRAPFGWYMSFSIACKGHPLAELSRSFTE
T3 sequence (Q9YFY3 1-136 E129A): as the sequence (Q9YFY3 1-136 K116M) above, with M116K, E129A counted along it
T4 sequence (Q9YFY3 1-136 Y115A): as the sequence (Q9YFY3 1-136 K116M) above, with Y115A, M116K counted along it

Nc1ncnc2c1ncn2[C@@H]1O[C@H](CO)[C@@H](NC(=O)[C@@H](N)CO)[C@H]1O [L-seryl-3′-aminoadenosine]
X-ray crystal structure (PabNTD): We solved the crystal structure of K121M mutant of PabNTD | Kd (ApNTD [1]): 1 ± 0.3 µM

N-terminal editing domain (NTD) of threonyl-tRNA synthetase from Aeropyrum pernix (domain or fragment)
stoichiometry N [2]: 2

C[C@@H](O)[C@H](N)C(=O)N[C@H]1[C@@H](O)[C@H](n2cnc3c(N)ncnc32)O[C@@H]1CO [L-threonyl-3′-aminoadenosine]
X-ray crystal structure (ApNTD [3]): E129A mutant also showed a loosening of interactions upon L-Thr3AA binding | X-ray crystal structure (PabNTD): We solved the crystal structure of K121M mutant of PabNTD | Kd (ApNTD [1]): 13.4 ± 2.9 µM | X-ray crystal structure (ApNTD [4]): no such loosening was observed in the case of Y115A | X-ray crystal structure (ApNTD [5]): K116M mutant of ApNTD with L-Ser3AA and L-Thr3AA

B1: N-terminal editing domain (NTD) of threonyl-tRNA synthetase from Methanococcus jannaschii (domain or fragment, UniProt Q58597 5-143, looked up)
chain: LIHSDYLEFEAKEKTKIAEETENLKGKLDECLACFIAVEREDENNPEGTAIGAVEEIEKVANQLKVNNIVVYPYAHLSSDLSSPETAVKVLKDIESILKERGYNVLRAPFGWYKAFKISCKGHPLSELSRKIVAKEEKK
notes: N-terminal editing domain of ThrRS of Methanococcus jannaschii, residues 5-143; untagged construct (stop codon in the reverse primer); Crystallised with the substrate analogues L-Ser3AA or L-Thr3AA; also called MjNTD; MjNTD wild type
stoichiometry N [6]: 2
